The IC50 is the concentration at which inhibition is half-maximal.

The target in this assay is T1, Axl (Homo sapiens, UniProt P30530).
T1 construct: endogenous in cells; host or cells: HeLa cells
T1 sequence (P30530 26-894): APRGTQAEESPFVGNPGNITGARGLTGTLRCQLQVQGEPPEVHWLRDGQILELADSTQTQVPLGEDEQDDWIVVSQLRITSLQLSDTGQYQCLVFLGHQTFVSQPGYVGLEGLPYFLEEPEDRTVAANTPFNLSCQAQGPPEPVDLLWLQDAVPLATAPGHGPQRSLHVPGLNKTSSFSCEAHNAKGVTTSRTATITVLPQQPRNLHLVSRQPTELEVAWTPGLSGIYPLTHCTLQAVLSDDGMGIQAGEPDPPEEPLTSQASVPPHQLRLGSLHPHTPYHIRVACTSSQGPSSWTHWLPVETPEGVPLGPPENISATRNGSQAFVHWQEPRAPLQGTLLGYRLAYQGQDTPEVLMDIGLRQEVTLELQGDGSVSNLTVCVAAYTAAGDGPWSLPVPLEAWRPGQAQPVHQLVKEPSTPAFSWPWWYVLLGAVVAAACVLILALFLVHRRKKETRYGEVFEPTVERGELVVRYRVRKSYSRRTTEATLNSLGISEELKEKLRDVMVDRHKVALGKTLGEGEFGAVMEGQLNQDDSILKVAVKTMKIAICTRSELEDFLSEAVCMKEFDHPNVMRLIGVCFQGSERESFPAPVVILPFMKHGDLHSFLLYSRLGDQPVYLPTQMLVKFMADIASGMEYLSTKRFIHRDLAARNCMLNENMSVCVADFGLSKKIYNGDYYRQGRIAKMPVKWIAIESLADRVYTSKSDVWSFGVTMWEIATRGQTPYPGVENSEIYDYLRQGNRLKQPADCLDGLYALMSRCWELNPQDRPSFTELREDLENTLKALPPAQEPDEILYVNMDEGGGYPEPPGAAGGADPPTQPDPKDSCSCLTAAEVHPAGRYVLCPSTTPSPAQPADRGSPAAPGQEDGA
Nature of the assay: Phospho-Akt In-Cell Western Assay (inhibition of Axl activity). It counts as cell-based. The conditions noted are these: Hela cells, stimulated by Axl-antibody cross-linking, phospho-Akt chemiluminescence normalized to relative cell number. The procedure:
The compounds of the invention were tested in the following assay for their ability to inhibit Axl activity.
Phospho-Akt In-Cell Western Assay
• Cell culture plate: 96 well assay plate (Corning 3610), white, clear bottom, tissue-culture treated. • Cells: Hela cells. • Starvation medium: For Axl stimulation: 0.5% FCS (fetal calf serum) in DMEM, plus Axl/Fc (extracellular domain of AXL fused to imunoglobulin Fc region) (R&D, 154-AL) 500 ng/mL. • For EGF (epidermal growth factor) stimulation: 0.5% FCS in DMEM (Dulbecco's modified Eagles medium). • Poly-L-Lysine 0.01% solution (the working solution): 10 μg/ml, dilute In PBS (phosphate buffered saline). • Axl antibody cross-linking: • 1st: Mouse anti-Axl (R&D, MAB154). • 2nd: Biotin-SP-conjugated AffiniPure goat anti-mouse IgG (H+L) (Jackson ImmunoResearch #115-065-003). • Fixing buffer: 4% formaldehyde in PBS. • Wash buffer: 0.1% TritonX-100 in PBS. • Quenching buffer: 3% H2O2, 0.1% Azide in wash buffer, Azide and hydrogen peroxide (H2O2) are added fresh. • Blocking buffer: 5% BSA in TBST (tris buffered saline plus 0.1% Tween 20). • Primary antibody: Rabbit anti-human Phospho-Akt antibody (Cell Signaling 9271): 1×250 diluted in blocking buffer. • Secondary antibody: HRP (horse radish peroxidase)-conjugated Goat anti-Rabbit secondary, stock solution: Jackson ImmunoResearch (Goat anti-Rabbit HRP, #111-035-144) 1:1 diluted in glycerol, store at −20° C. The working solution: 1×2000 dilution of stock in blocking buffer. • Chemiluminescent working solution (Pierce, 37030): SuperSignal ELISA (enzyme linked immunosorbant assay) Pico Chemiluminescent substrate. • Crystal Violet solution: Stock: 2.5% Crystal violet in methanol, filtered and kept at ambient temperature. The working solution: dilute the stock 1:20 with PBS immediately before use. • 10% SDS: working solution: 5% SDS (sodium dodecylsulfate), diluted in PBS Methods: Day 1:
A 96 well TC (tissue culture treated) plate was coated with 10 μg/mL poly-L-Lysine at 37° C. for 30 min, washed twice with PBS, and air-dried for 5 minutes before cells were added. Hela cells were seeded at 10,000 cells/well and the cells were starved in 100 μL starvation medium containing Axl/Fc for 24 hrs.
The cells were pre-treated with test compounds by adding 100 μL of 2× test compound to the starvation medium on the cells. The cells were incubated at 37° C. for 1 hr before stimulation.
The cells were stimulated by Axl-antibody cross-linking as follows: A 5× 1st/2nd Axl antibody mixture was made (37.5 μg/mL 1st/100 μg/mL 2nd) in starvation medium and nutated at 4° C. with thorough mixing for 1-2 hours for clustering. The resulting mix was warmed to 37° C. 50 μL of 5× Axl 1st/2nd of antibody cluster was added to the cells and the cells were incubated at 37° C. for 5 min.
After 5 minutes stimulation, the plate was flicked to remove medium and the plate was tapped onto paper towels. Formaldehyde (4.0% in PBS, 100 μL) was added to fix the cells and the cells were incubated at ambient temperature for 20 min without shaking.
The cells were washed with a plate washer buffer to remove the formaldehyde solution. The plate was flicked to removed excess wash buffer and tapped onto paper towels. Quenching buffer (100 μL) was added to each well and the cells were incubated at ambient temperature for 20 minutes without shaking.
The cells were washed with a plate washer buffer to remove the quenching buffer. Blocking buffer (100 μL) was added and the cells were incubated at ambient temperature for at least an hour with gentle shaking.
The cells were washed with a plate washer buffer and diluted primary antibody (50 μL) was added to each well (blocking buffer was added to the negative control wells instead). The plates were incubated overnight at 4° C. with gentle shaking.
The wash buffer was removed, diluted secondary antibody (100 μL) was added, and the cells were incubated at ambient temperature for 1 hour with gentle shaking. […]
Turning to `COc1cc2ncnc(-c3sc(Nc4ccc(OCCN5CCCC5)cc4)nc3N)c2cc1OC` [Compound 1, 5-(6,7-dimethoxyquinazolin-4-yl)-N^2-(4-(2-(pyrrolidin-1-yl)ethoxy)phenyl)thiazole-2,4-diamine], the half-maximal inhibitory concentration (IC50) was in the range of 1 to 10 µM.

In turn, `COc1ccc(Nc2nc(N)c(-c3ccccn3)s2)cc1` [Compound 2, N^2-(4-methoxyphenyl)-5-(pyridin-2-yl)thiazole-2,4-diamine] showed an IC50 greater than 20 µM.

`COc1cc(Nc2nc(N)c(-c3cnc4ccccc4n3)s2)cc(OC)c1OC` [Compound 3, 5-(quinoxalin-2-yl)-N^2-(3,4,5-trimethoxyphenyl)thiazole-2,4-diamine] came in with an IC50 of 1 to 10 µM.

In the case of `Nc1nc(Nc2ccc(OCCN3CCCC3)cc2)sc1-c1cnc2ccccc2n1` [Compound 4, N^2-(4-(2-(pyrrolidin-1-yl)ethoxy)phenyl)-5-(quinoxalin-2-yl)thiazole-2,4-diamine], the IC50 was in the range of 1 to 10 µM.

In turn, `Nc1nc(Nc2ccc(OCCN3CCCC3)cc2)sc1-c1ncnc2ccccc12` [Compound 5, N^2-(4-(2-(pyrrolidin-1-yl)ethoxy)phenyl)-5-(quinazolin-4-yl)thiazole-2,4-diamine] registered an IC50 of 1 to 10 µM.

For the compound `COc1cc(Nc2nc(N)c(-c3ncnc4ccccc34)s2)cc(OC)c1OC` [Compound 6, 5-(quinazolin-4-yl)-N^2-(3,4,5-trimethoxyphenyl)thiazole-2,4-diamine], the IC50 was greater than 20 µM.

`Nc1nc(Nc2ccc(N3CCOCC3)cc2)sc1-c1nccc2ccccc12` [Compound 7, 5-(isoquinolin-1-yl)-N^2-(4-morpholinophenyl)thiazole-2,4-diamine] displayed an IC50 of 10 to 20 µM.

In the case of `Nc1nc(Nc2ccc(OCCN3CCCC3)cc2)sc1-c1nccc2ccccc12` [Compound 8, 5-(isoquinolin-1-yl)-N^2-(4-(2-(pyrrolidin-1-yl)ethoxy)phenyl)thiazole-2,4-diamine], the IC50 is greater than 20 µM.

`Nc1nc(Nc2ccc(OCCN3CCCC3)cc2)sc1-c1nc2ccccc2s1` [Compound 9, 5-(benzo[d]thiazol-2-yl)-N^2-(4-(2-(pyrrolidin-1-yl)ethoxy)phenyl)thiazole-2,4-diamine] displayed an IC50 of 1 to 10 µM.

Compound `COc1cc2ncnc(-c3sc(Nc4ccc(N5CCOCC5)cc4)nc3N)c2cc1OC` [Compound 10, 5-(6,7-dimethoxyquinazolin-4-yl)-N^2-(4-morpholinophenyl)thiazole-2,4-diamine] yielded an IC50 of 1 to 10 µM.

On to `COc1cc2ncnc(-c3sc(Nc4ccc(N5CCN(C)CC5)cc4)nc3N)c2cc1OC` [Compound 11, 5-(6,7-dimethoxyquinazolin-4-yl)-N^2-(4-(4-methylpiperazin-1-yl)phenyl)thiazole-2,4-diamine], for which the IC50 is 1 to 10 µM.

Turning to `Nc1nc(Nc2ccc(N3CCN(C4CC5CCC4C5)CC3)cc2)sc1-c1ncnc2ccsc12` (centres unmarked) [Compound 12, N^2-(4-(4-(bicyclo[2.2.1]heptan-2-yl)piperazin-1-yl)phenyl)-5-(thieno[3,2-d]pyrimidin-4-yl)thiazole-2,4-diamine], the IC50 is 1 to 10 µM.

The compound `COc1cc2ncnc(-c3sc(Nc4ccc(N5CCN(C6CC7CCC6C7)CC5)cc4)nc3N)c2cc1OC` (centres unmarked) [Compound 13, N^2-(4-(4-(bicyclo[2.2.1]heptan-2-yl)piperazin-1-yl)phenyl)-5-(6,7-dimethoxyquinazolin-4-yl)thiazole-2,4-diamine] came in with an IC50 greater than 20 µM.

`COc1cc2ncnc(-c3sc(Nc4ccc(OCCN5CCCC5)c(Cl)c4)nc3N)c2cc1OC` [Compound 14, N^2-(3-chloro-4-(2-(pyrrolidin-1-yl)ethoxy)phenyl)-5-(6,7-dimethoxyquinazolin-4-yl)thiazole-2,4-diamine] displayed an IC50 of 1 to 10 µM.

The record behind these values is US8288382B2, “Diaminothiazoles useful as Axl inhibitors” (Rigel Pharmaceuticals, Inc., priority 2006, dated 2012).
